This note sets out measurements from patent publication US20070010671A1, “Novel quinazoline derivatives and methods of treatment related to the use thereof” (priority 2003, published 2007).

SMILES strings stand for the structures. Bounds are passed on as bounds.

The first assay has as its target MCH receptor (Homo sapiens, UniProt Q99705). Put plainly: High throughput functional screening FLIPR/FDSS6000: inhibition of MCH-evoked intracellular Ca2+ changes. The class given is cell-based. The conditions noted are these: class by percent of control at 10^-7 M or IC50. A digest of the protocol:
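Seed cells the day before, then load them with Fluo4-AM for one hour at 37° C and wash in HEPES-buffered HBSS, pH 7.4. Add compound for 3 min, then stimulate with 50 nM MCH. Monitor the calcium transient for 290 s.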
`CN(C)c1nc(N[C@H]2CC[C@@H](CNC(=S)Nc3ccc(Cl)cc3Cl)CC2)nc2ccccc12` [compound 589]: the class is reported as 3 (Class 3: The value of percent of control at 10^−7 M was more than 60% or the value of IC50 was more than 200 nM.).
Regarding `CC(C)c1cccc(C(C)C)c1NC(=S)N[C@H]1CC[C@@H](Nc2nc(N(C)C)c3ccccc3n2)CC1` [compound 251], the class is on record as 2 (Class 2: The value of percent of control at 10^−7 M was from 40% to 60% or the value of IC50 was from 50 nM to 200 nM.).
Still for that read-out and setting: as for `COc1ccc(CCNC(=S)NC[C@H]2CC[C@@H](Nc3nc(N(C)C)c4ccccc4n3)CC2)cc1OC` [compound 665, N-[2-(3,4-dimethoxyphenyl)ethyl]-N′-[(cis-4-{[4-(dimethylamino)quinazolin-2-yl]amino}cyclohexyl)methyl]thiourea], the figure is 2 (Class 2: The value of percent of control at 10^−7 M was from 40% to 60% or the value of IC50 was from 50 nM to 200 nM.).
Still for that read-out and setting: as for `CN(C)c1nc(N[C@H]2CC[C@@H](CNC(=S)Nc3cccc([N+](=O)[O-])c3)CC2)nc2ccccc12` [compound 612], the figure is 3 (Class 3: The value of percent of control at 10^−7 M was more than 60% or the value of IC50 was more than 200 nM.); as for `CN(C)c1nc(N[C@H]2CC[C@@H](CNC(=O)NCc3ccc(F)cc3)CC2)nc2ccccc12` [compound 553, N-[(cis-4-{[4-(dimethylamino)quinazolin-2-yl]amino}cyclohexyl)methyl]-N′-(4-fluorobenzyl)urea], 2 (Class 2: The value of percent of control at 10^−7 M was from 40% to 60% or the value of IC50 was from 50 nM to 200 nM.); as for `Cc1cc([N+](=O)[O-])ccc1NC(=S)N[C@H]1CC[C@@H](Nc2nc(N(C)C)c3ccccc3n2)CC1` [compound 302, N-(cis-4-{[4-(dimethylamino)quinazolin-2-yl]amino}cyclohexyl)-N′-(2-methyl-4-nitrophenyl)thiourea], 1 (Class 1: The value of percent of control at 10^−7 M was less than 40% or the value of IC50 was less than 50 nM.).
Still for that read-out and setting: as for `Cc1ccc(NC(=O)NC[C@H]2CC[C@@H](Nc3nc(N(C)C)c4ccccc4n3)CC2)cc1` [compound 457, N-[(cis-4-{[4-(dimethylamino)quinazolin-2-yl]amino}cyclohexyl)methyl]-N′-(4-methylphenyl)urea], the figure is 1 (Class 1: The value of percent of control at 10^−7 M was less than 40% or the value of IC50 was less than 50 nM.); as for `COc1cccc(CNC(=S)NC[C@H]2CC[C@@H](Nc3nc(N(C)C)c4ccccc4n3)CC2)c1OC` [compound 716], 2 (Class 2: The value of percent of control at 10^−7 M was from 40% to 60% or the value of IC50 was from 50 nM to 200 nM.).
On to `CN(C)c1nc(N[C@H]2CC[C@@H](CNC(=O)Nc3c(Br)cc(F)cc3Br)CC2)nc2ccccc12` [compound 482, N-(2,6-dibromo-4-fluorophenyl)-N′-[(cis-4-{[4-(dimethylamino)quinazolin-2-yl]amino}cyclohexyl)methyl]urea], for which the class was 1 (Class 1: The value of percent of control at 10^−7 M was less than 40% or the value of IC50 was less than 50 nM.).
Same read-out and setting: as for `CN(C)c1nc(N[C@H]2CC[C@@H](NC(=S)Nc3ccc(NC(=O)OC(C)(C)C)cc3)CC2)nc2ccccc12` [compound 240], the figure is 3 (Class 3: The value of percent of control at 10^−7 M was more than 60% or the value of IC50 was more than 200 nM.); as for `CC(C)c1cc(Br)c(NC(=O)N[C@H]2CC[C@@H](Nc3nc(N(C)C)c4ccccc4n3)CC2)c(Br)c1` [compound 339, N-(2,6-dibromo-4-isopropylphenyl)-N′-(cis-4-{[4-(dimethylamino)quinazolin-2-yl]amino}cyclohexyl)urea], 1 (Class 1: The value of percent of control at 10^−7 M was less than 40% or the value of IC50 was less than 50 nM.); as for `CN(C)c1nc(N[C@H]2CC[C@@H](CNC(=O)Nc3ccc(Cl)cc3C(F)(F)F)CC2)nc2ccccc12` [compound 545, N-[4-chloro-2-(trifluoromethyl)phenyl]-N′-[(cis-4-{[4-(dimethylamino)quinazolin-2-yl]amino}cyclohexyl)methyl]urea], 1 (Class 1: The value of percent of control at 10^−7 M was less than 40% or the value of IC50 was less than 50 nM.).
The same measure, in the same setting: under `COC(=O)c1cccc(NC(=S)NC[C@H]2CC[C@@H](Nc3nc(N(C)C)c4ccccc4n3)CC2)c1` [compound 688] stands 3 (Class 3: The value of percent of control at 10^−7 M was more than 60% or the value of IC50 was more than 200 nM.); under `COc1ccc(OC)c(CCNC(=S)N[C@H]2CC[C@@H](Nc3nc(N(C)C)c4ccccc4n3)CC2)c1` [compound 296, N-[2-(2,5-dimethoxyphenyl)ethyl]-N′-(cis-4-{[4-(dimethylamino)quinazolin-2-yl]amino}cyclohexyl)thiourea], 2 (Class 2: The value of percent of control at 10^−7 M was from 40% to 60% or the value of IC50 was from 50 nM to 200 nM.); under `CN(C)c1nc(N[C@H]2CC[C@@H](CNC(=S)Nc3cc(Cl)c(Cl)cc3Cl)CC2)nc2ccccc12` [compound 668], 3 (Class 3: The value of percent of control at 10^−7 M was more than 60% or the value of IC50 was more than 200 nM.).
On to `CN(C)c1nc(N[C@H]2CC[C@@H](CNC(=S)NCC3CCCCC3)CC2)nc2ccccc12` [compound 710, N-(cyclohexylmethyl)-N′-[(cis-4-{[4-(dimethylamino)quinazolin-2-yl]amino}cyclohexyl)methyl]thiourea], for which the class is 2 (Class 2: The value of percent of control at 10^−7 M was from 40% to 60% or the value of IC50 was from 50 nM to 200 nM.).
On the same count and under the same terms, as for `CC(C)c1ccc(NC(=O)NC[C@H]2CC[C@@H](Nc3nc(N(C)C)c4ccccc4n3)CC2)cc1` [compound 440], the figure is 3 (Class 3: The value of percent of control at 10^−7 M was more than 60% or the value of IC50 was more than 200 nM.).
Same read-out and setting: as for `Cc1cccc(C)c1NC(=S)NC[C@H]1CC[C@@H](Nc2nc(N(C)C)c3ccccc3n2)CC1` [compound 593, N-[(cis-4-{[4-(dimethylamino)quinazolin-2-yl]amino}cyclohexyl)methyl]-N′-(2,6-dimethylphenyl)thiourea], the figure is 2 (Class 2: The value of percent of control at 10^−7 M was from 40% to 60% or the value of IC50 was from 50 nM to 200 nM.); as for `CN(C)c1nc(N[C@H]2CC[C@@H](CNC(=S)NCc3ccccc3Cl)CC2)nc2ccccc12` [compound 678], 3 (Class 3: The value of percent of control at 10^−7 M was more than 60% or the value of IC50 was more than 200 nM.); as for `CC(C)c1cccc(C(C)C)c1NC(=O)NC[C@H]1CC[C@@H](Nc2nc(N(C)C)c3ccccc3n2)CC1` [compound 468], 1 (Class 1: The value of percent of control at 10^−7 M was less than 40% or the value of IC50 was less than 50 nM.).

Still in this assay, the particulars now being: class by percent of control at 10^-7 M or by IC50; read-out: class.
For `COC(=O)[C@H](Cc1ccccc1)NC(=O)N[C@H]1CC[C@@H](Nc2nc(N(C)C)c3ccccc3n2)CC1` (relative stereo) [compound 62, methyl N-{[(cis-4-{[4-(dimethylamino)quinazolin-2-yl]amino}cyclohexyl)amino]carbonyl}phenylalaninate], the IC50 was less than 0.05 µM.
Still for that read-out and setting: as for `CN(C)c1nc(N[C@H]2CC[C@@H](NC(=O)NCc3ccccc3F)CC2)nc2ccccc12` [compound 100, N-(cis-4-{[4-(dimethylamino)quinazolin-2-yl]amino}cyclohexyl)-N′-(2-fluorobenzyl)urea], the figure is less than 0.05 µM; as for `CN(C)c1nc(N[C@H]2CC[C@@H](CNC(=S)NC3CC4CCC3C4)CC2)nc2ccccc12` (relative stereo) [compound 798], 0.05 to 0.2 µM.

Still in this assay, the particulars now being: class by percent of control at 10^−7 M or by IC50; read-out: class.
On to `CN(C)c1nc(N[C@H]2CC[C@@H](C(=O)Nc3ccc(Cl)nc3)CC2)nc2ccccc12` [Example 1196, cis-N-(6-chloropyridin-3-yl)-4-{[4-(dimethylamino)quinazolin-2-yl]amino}cyclohexanecarboxamide], for which the IC50 is less than 0.05 µM.
Take `CN(C)c1nc(N[C@H]2CC[C@@H](C(=O)NCc3cccc(OC(F)F)c3)CC2)nc2ccccc12` [Example 1185, cis-N-[3-(difluoromethoxy)benzyl]-4-{[4-(dimethylamino)quinazolin-2-yl]amino}cyclohexanecarboxamide]: the IC50 is less than 0.05 µM.
Same read-out and setting: as for `Cc1cc(Cl)cc(Cl)c1CNC(=O)[C@H]1CC[C@@H](Nc2nc(N(C)C)c3ccccc3n2)CC1` [Example 1187, cis-N-(2,4-dichloro-6-methylbenzyl)-4-{[4-(dimethylamino)quinazolin-2-yl]amino}cyclohexanecarboxamide], the figure is 0.05 to 0.2 µM; as for `CN(C)c1nc(N[C@H]2CC[C@@H](C(=O)Nc3nc(C(C)(C)C)c(Br)s3)CC2)nc2ccccc12` [Example 1199, cis-N-(5-bromo-4-tert-butyl-1,3-thiazol-2-yl)-4-{[4(dimethylamino)quinazolin-2-yl]amino}cyclohexanecarboxamide], greater than 0.2 µM; as for `COc1ccccc1NC(=O)NC[C@H]1CC[C@@H](Nc2nc(N(C)C)c3ccccc3n2)CC1` [Example 1015, N-[(cis-4-{[4-(dimethylamino)quinazolin-2-yl]amino}cyclohexyl)methyl]-N′-(2-methoxyphenyl)urea], 0.05 to 0.2 µM.
Regarding `CN(C)c1nc(N[C@H]2CC[C@@H](C(=O)NCc3cc(F)ccc3F)CC2)nc2ccccc12` [Example 1158, cis-N-(2,5-difluorobenzyl)-4-{[4-(dimethylamino)quinazolin-2-yl]amino}cyclohexanecarboxamide], the IC50 is less than 0.05 µM.
Still for that read-out and setting: as for `CN(C)c1nc(N[C@H]2CC[C@@H](NC(=O)Nc3cccc(OC(F)(F)F)c3)CC2)nc2ccccc12` [Example 1009, N-(cis-4-{[4-(dimethylamino)quinazolin-2-yl]amino}cyclohexyl)-N′-[3-(trifluoromethoxy)phenyl]urea], the figure is less than 0.05 µM.
